Test results from patent publication US9725449B2, “Tricyclic compounds as anticancer agents” (BRISTOL-MYERS SQUIBB COMPANY, priority 2015, dated 2017).

biological target: BRD4 (Homo sapiens, UniProt O60885); assay: Time resolved fluorescence resonance energy transfer (TR-FRET) binding assay, bromodomain BRD4; settings: one of the FRET assays described; read-out: FRET BRD4 IC50

Row | Structure (SMILES) | IC50 [nM]
1 | [2H]C([2H])([2H])c1nnn(C)c1-c1cnc2c3c(OC)nc(Cl)cc3n([C@H](c3ncccc3F)C3CCOCC3)c2c1 [Example 305, 11-Chloro-8-[(S)-(3-fluoropyridin-2-yl)(oxan-4-yl)methyl]-13-methoxy-5-[4-(^2H3)methyl-1-methyl-1H-1,2,3-triazol-5-yl]-3,8,12-triazatricyclo[7.4.0.0^2,^7]trideca-1(9),2(7),3,5,10,12-hexaene] | < 10
2 | [2H]C([2H])([2H])c1nnn(C)c1-c1cnc2c3c(OC)ncc(S(C)(=O)=O)c3n(C(c3ncccc3F)C3CCC(F)(F)CC3)c2c1 (stereo not drawn) [Example 73, 8-[(4,4-Difluorocyclohexyl)(3-fluoropyridin-2-yl)methyl]-10-methanesulfonyl-13-methoxy-5-[4-(^2H3)methyl-1-methyl-1H-1,2,3-triazol-5-yl]-3,8,12-triazatricyclo[7.4.0.0^2,^7]trideca-1(13),2(7),3,5,9,11-hexaene] | < 1500
3 | [2H]C([2H])([2H])c1nnn(C)c1-c1cnc2c3c(OC)ncc(C(C)(C)O)c3n(C(c3ccccc3)C3CCC(F)(F)CC3)c2c1 (single isomer, unassigned) [Example 282, 2-{8-[(4,4-Difluorocyclohexyl)(phenyl)methyl]-13-methoxy-5-[4-(^2H3)methyl-1-methyl-1H-1,2,3-triazol-5-yl]-3,8,12-triazatricyclo[7.4.0.0^2,^7]trideca-1(9),2,4,6,10,12-hexaen-10-yl}propan-2-ol] | < 1
4 | [2H]C([2H])([2H])c1nnn(C)c1-c1cnc2c3c(OC)nc(C(C)(C)O)cc3n(C(c3ccccc3)C3CCC(F)(F)CC3)c2c1 (stereo not drawn) [Example 346, 2-{8-[(4,4-Difluorocyclohexyl)(phenyl)methyl]-13-methoxy-5-[4-(^2H3)methyl-1-methyl-1H-1,2,3-triazol-5-yl]-3,8,12-triazatricyclo[7.4.0.0^2,^7]trideca-1(13),2(7),3,5,9,11-hexaen-11-yl}propan-2-ol] | < 1
5 | Cc1nnn(C)c1-c1cnc2c3ccc(N4CCN(S(=O)(=O)N(C)C)CC4)nc3n([C@H](c3ccccc3F)C3CCOCC3)c2c1 [Example 269, 4-[5-(Dimethyl-1H-1,2,3-triazol-5-yl)-8-[(S)-(2-fluorophenyl)(oxan-4-yl)methyl]-3,8,10-triazatricyclo[7.4.0.0^2,^7]trideca-1(13),2(7),3,5,9,11-hexaen-11-yl]-N,N-dimethylpiperazine-1-sulfonamide] | < 1
6 | Cc1nnn(C)c1-c1cnc2c3c(O)nc(C(C)(C)O)cc3n([C@@H](c3ncccc3F)C3CCOCC3)c2c1 [Example 312, 8-[(R)-(3-Fluoropyridin-2-yl)(oxan-4-yl)methyl]-11-(2-hydroxypropan-2-yl)-5-[4-(^2H3)methyl-1-methyl-1H-1,2,3-triazol-5-yl]-3,8,12-triazatricyclo[7.4.0.0^2,^7]trideca-1(9),2(7),3,5,10,12-hexaen-13-ol] | < 10
7 | Cc1nnn(C)c1-c1cnc2c3ccc(N4CCS(=O)(=O)CC4)nc3n([C@H](c3ccccc3)C3CCOCC3)c2c1 [Example 182, 4-[5-(Dimethyl-1H-1,2,3-triazol-5-yl)-8-[(S)-oxan-4-yl(phenyl)methyl]-3,8,10-triazatricyclo[7.4.0.0^2,^7]trideca-1(9),2(7),3,5,10,12-hexaen-11-yl]-1,4-thiomorpholine-1,1-dione] | < 1
8 | [2H]C([2H])([2H])c1nnn(C)c1-c1cnc2c3c(OCC)ncc(S(C)(=O)=O)c3n(C(c3ncccc3F)C3CCOCC3)c2c1 (stereo not drawn) [Example 68, 13-Ethoxy-8-[(3-fluoropyridin-2-yl)(oxan-4-yl)methyl]-10-methanesulfonyl-5-[4-(^2H3)methyl-1-methyl-1H-1,2,3-triazol-5-yl]-3,8,12-triazatricyclo[7.4.0.0^2,^7]trideca-1(13),2(7),3,5,9,11-hexaene] | < 1
9 | CCOP(=O)(O)CCNc1ccc2c3ncc(-c4c(C)nnn4C)cc3n([C@H](c3ccccc3)C3CCOCC3)c2n1 [Example 220, (2-{[5-(Dimethyl-1H-1,2,3-triazol-5-yl)-8-[(S)-oxan-4-yl(phenyl)methyl]-3,8,10-triazatricyclo[7.4.0.0^2,^7]trideca-1(9),2(7),3,5,10,12-hexaen-11-yl]amino}ethyl)(ethoxy)phosphinic acid] | < 1
